From PubChem BioAssay AID602210 (Sanford-Burnham Center for Chemical Genomics, 2012)
The source made the active and inactive calls. The rule behind the calls is not given here.

experiment: H9c2 cardiomyoblast viability modulators under 2-DG – cell-based, ATPlite luminescence, rat, set 2, myocardial damage modulator project, dose response (AID 602210); details: H9c2 rat cardiomyoblasts, 2-deoxyglucose-induced death, 2 h

Compound | IC50
CCOCCCNC(=O)CCC(=O)NNc1nc2ccccc2c2nc(-c3ccccc3)nn12 | 35.6 µM (inactive)
CCn1c(=O)cc(OCC(=O)Nc2ccccc2C#N)c2ccccc21 | 43.9 µM (inactive)
CCOC(=O)c1ccc(NC(=O)c2nc[nH]c2C(=O)NCCCCCNC(=O)OC(C)(C)C)cc1 | 6.6 µM
CC1(C)CC(=O)C2=C(C1)N(CCN1CCOCC1)C1=C(C(=O)CC(C)(C)C1)C2c1ccc(Cl)cc1 | 39.1 µM (inactive)
CN(C)S(=O)(=O)c1ccc2[nH]cc(/C=C/c3nc4ccccc4c(=O)n3-c3ccccc3)c2c1 | 4.24 µM
Fc1ccc(CSc2ccc3nnc(-c4cccnc4)n3n2)cc1 | 44.5 µM (inactive)
Cc1nc(N2CCN(c3ccccn3)CC2)c2c(C)c(C(=O)Nc3ccccc3F)sc2n1 | 16.4 µM (inactive)
CNC(=O)c1ccc(-c2sc3nc(N4CCOCC4)c4c(c3c2N)CCCC4)o1 | > 79 µM (inactive)
O=C(Nc1cccc(Cl)c1)c1nc[nH]c1C(=O)NCCCNC(=O)c1[nH]cnc1C(=O)Nc1cccc(Cl)c1 | > 79 µM (inactive)
CCOC(=O)c1ccc(-c2ccc(/C=C(\C#N)C(=O)NCC3CCCO3)o2)cc1 (stereo not drawn) | > 79 µM (inactive)
Brc1ccc(-c2ccc(/C=N/Nc3nc(N4CCOCC4)nc(N4CCOCC4)n3)o2)cc1 | 5.7 µM
Cc1ccc(Cn2c(CCNc3nc(-c4ccc(Cl)c([N+](=O)[O-])c4)cs3)nc3cc(C(=O)NCCCO)ccc32)cc1 | > 79 µM (inactive)
O=C(c1cc2nc(-c3ccccc3)cc(-c3ccccc3)n2n1)N1CCN(C(=O)c2ccco2)CC1 | 10.3 µM (inactive)
CCC(Oc1ccccc1)C(=O)Nc1ccccc1C(=O)N1CCCCC1 (stereo not drawn) | 36.4 µM (inactive)
COCc1c(C(=O)Nc2ccc3nc(N4CCOCC4)sc3c2)oc2ccccc12 | 15 µM (inactive)
CCOC(=O)c1c2c3c(cccc3n(C)c1=O)C(=O)c1ccccc1-2 | 15.8 µM (inactive)
CCn1c(SCC(=O)Nc2ccccc2N2CCCCC2)nc2c1c(=O)n(C)c(=O)n2C | 16.4 µM (inactive)
COc1cc(-c2nnc(-c3cc(-c4ccccc4)nc4ccccc34)o2)cc(OC)c1OC | 7.22 µM
COc1ccc(-c2cc3nc(C)cc(N4CCN(C(=O)c5ccoc5)CC4)n3n2)cc1 | > 79 µM (inactive)
CCn1c(O)c(/C=N/N=C2CCCCC2)c2cc(C3=NNC(=O)CC3)ccc21 | 21.6 µM (inactive)
CCOc1cc(/C=C/c2ccc3cccc([N+](=O)[O-])c3n2)ccc1OCC(=O)N(C)C | 18.3 µM (inactive)
O=C(COC(=O)c1cc(-c2cccnc2)nc2ccccc12)Nc1ccc(F)cc1F | 32.5 µM (inactive)

Compound | IC50
O=c1c2ccccc2nc(CSc2ncnc3nc[nH]c23)n1-c1ccc(Cl)c(Cl)c1 | 14.7 µM (inactive)
COc1ccc(C(=O)Nc2nc(-c3ccccn3)cs2)cc1S(=O)(=O)N1CCOCC1 | 26.8 µM (inactive)
COC(=O)c1ccc(N)c(N=CC2=C(O)CC(C)(C)CC2=O)c1 | 11.9 µM (inactive)
COC(=O)c1ccc(C(C(=O)NCc2ccccc2)N(Cc2cccs2)C(=O)c2cnccn2)cc1 (stereo not drawn) | 13.4 µM (inactive)
CNC(=O)c1ccc(-c2sc3nc(N4CCOCC4)c4c(c3c2N)CC(C)(C)OC4)o1 | 21.3 µM (inactive)
COc1cc(NC(=O)c2cccc3c(-c4cnn(C)c4)coc23)cc(OC)c1OC | > 79 µM (inactive)
C[C@@H]1ON(C)[C@H]2C[C@H]3c4[nH]c5ccc(-c6ccc7c(c6)OCO7)cc5c4CCN3C[C@@H]12 | > 79 µM (inactive)
COC(=O)c1cc(NC(=O)Nc2cc(OC)ccc2OC)cc(C(=O)OC)c1 | > 79 µM (inactive)
N#Cc1c(-c2ccco2)cc(-c2ccccn2)nc1N | 37.2 µM (inactive)
Cc1ccccc1N(C(=O)c1snc(C(N)=O)c1N)C(C(=O)NCc1ccccc1)c1ccc(O)cc1 (stereo not drawn) | 18 µM (inactive)
CCc1nc2ccc(C(=O)Nc3cc(-c4ccccc4)ccc3OC)cn2c1N(C)Cc1nccs1 | 14.1 µM (inactive)
NS(=O)(=O)c1ccc(N=Cc2c(O)n(-c3nccs3)c(=O)c3ccccc23)cc1 | 37.2 µM (inactive)
COc1cccc(-c2cnc3c(NC=O)cc(-c4cc(C)c(O)c(C)c4)cn23)c1 | 18.9 µM (inactive)
COc1cc(/C=N/NC(=O)c2cccnc2)ccc1OCC(=O)Nc1ccccc1Cl | 7.84 µM
CCOC(=O)C1=C(COC(=O)/C=C/c2ccc(F)cc2)NC(=O)NC1C (stereo not drawn) | 18.1 µM (inactive)
COc1ccccc1NC(=O)CSc1ccc2nnc(-c3ccc(C)cc3)n2n1 | > 79 µM (inactive)
COc1ccc(CC(=O)N(Cc2ccccc2)c2ccccc2)cc1S(=O)(=O)N1CCOCC1 | 8.92 µM
CCN(C[C@H]1N[C@@](C)(C(=O)OC)[C@H]2C(=O)N(Cc3ccccc3)C(=O)[C@@H]12)C(=O)c1ccc(C(C)(C)C)cc1 | 17.9 µM (inactive)
COC(=O)C1=C(C)N(CCc2ccc(OC)cc2)C(=O)C1 | 33.5 µM (inactive)
CCn1nc(C(=O)Nc2nc(-c3ccccn3)cs2)c2ccccc2c1=O | 6.65 µM
CCn1cc(C(=O)Nc2cccc(NC(C)=O)c2)c2cc(OC)c(OC)cc2c1=O | 39.1 µM (inactive)
COc1ccccc1-c1cc(NC=O)c2ncc(-c3cccc(C(C)=O)c3)n2c1 | > 79 µM (inactive)

Compound | IC50
CCCCNC(=O)c1cn(-c2ccc(OCC)cc2)c(=O)c2cc(OC)c(OC)cc12 | 39.2 µM (inactive)
O=C(NCC(=O)N(Cc1ccccc1)C(C(=O)NC1CCCCC1)c1ccco1)c1ccco1 (stereo not drawn) | 24 µM (inactive)
COC(=O)c1ccc(OCC(=O)Nc2ccccc2C(=O)NC2CC2)cc1 | 11.2 µM (inactive)
COc1cc2nc(C3CCC3)nc(N3CCN(c4ccccn4)CC3)c2cc1OC | > 79 µM (inactive)
COc1ccccc1-c1cc(NC(C)=O)c2ncc(-c3cccc(C(C)=O)c3)n2c1 | > 79 µM (inactive)
CCN(CC(=O)Nc1ccc(OC)cc1)C(=O)c1cc(-c2cccs2)nn1-c1ccccc1 | 7.55 µM
CC(C)(C)OC(=O)CNC(=O)c1[nH]cnc1C(=O)Nc1ccc(CNC(=O)OC(C)(C)C)cc1 | 5.09 µM
Cc1c(C(=O)Nc2ccc3nc(N4CCOCC4)sc3c2)oc2ccccc12 | 15.8 µM (inactive)
CC(C)(C)OC(=O)N1CCC(NC(=O)c2nc[nH]c2C(=O)NCC(=O)OCc2ccccc2)CC1 | 4.3 µM
CC1Nc2ncnc(N3CCN(c4ccccc4)CC3)c2N(Cc2ccc(Cl)cc2)C1=O (stereo not drawn) | 21.4 µM (inactive)
CC(C)c1ccccc1NC(=O)COC(=O)c1c2c(nc3ccccc13)CCN(Cc1ccccc1)C2 | 7.98 µM
Cn1c(=O)n(CCc2ccccc2)c(=O)c2c1nc1n2CCCN1Cc1ccccc1 | 14.5 µM (inactive)
COc1ccc(-c2cc(-c3ccc(O)cc3)nc(N)c2C#N)cc1OC | > 79 µM (inactive)
Cc1[nH]c2ccccc2c1/C=N/NC(=O)c1cc(-c2ccccc2)n[nH]1 | 8.98 µM
COc1ccc(-c2cc(-c3nnc(COC(=O)C4CC4C)o3)c3ccccc3n2)cc1OC (stereo not drawn) | 10.3 µM (inactive)
COc1ccccc1CN(C)C(=O)c1cc(-c2cc(OC)c(OC)c(OC)c2)nc2ccccc12 | 10.4 µM (inactive)
COc1cc(-c2cc(C(=O)Nc3cccc(C(C)=O)c3)c3ccccc3n2)cc(OC)c1OC | 9.8 µM
CCOc1ccccc1NC(=O)c1oc2ccccc2c1NC(=O)C1CCCO1 (stereo not drawn) | 12.6 µM (inactive)
O=C(NC1CCCCC1)C(c1ccc2ncccc2c1)N(Cc1ccco1)C(=O)c1ccc2c(c1)OCCO2 (stereo not drawn) | 42.5 µM (inactive)
COc1cc(/C=c2\s/c(=C(/C#N)C(=O)N3CCCC3)n(-c3ccccc3)c2=O)ccc1O | > 79 µM (inactive)
COc1ccccc1N1CCN(C(=O)c2ccc3nc(-c4ccco4)c(-c4ccco4)nc3c2)CC1 | 14 µM (inactive)
COc1ccc(C(=O)Nc2cccc(NC(=O)c3ccc(OC)c(OC)c3)n2)cc1OC | 5.47 µM

Compound | IC50
CS(=O)(=O)Nc1cccc(NC(=O)c2cccc3c(-c4cccc(C(N)=O)c4)coc23)c1 | 5.97 µM
NC(=O)c1nsc(C(=O)N(c2ccccc2F)C(C(=O)NCc2ccccc2)c2ccc(O)cc2)c1N (stereo not drawn) | 3.04 µM
O=C(Nc1ccc(C(=O)N2CCOCC2)cc1)c1cnn2c(C(F)F)cc(-c3ccccc3)nc12 | > 79 µM (inactive)
CCOCc1c(C(=O)NC2=Nc3ccccc3NC(CC)=C2C(=O)OCC)oc2ccccc12 | 4.85 µM
CCOC(=O)N1CCN(C(=O)CSc2nc3c(cnn3-c3ccc(C)cc3)c(=O)[nH]2)CC1 | > 79 µM (inactive)
COCCNC(=O)COC(=O)c1ccc(OCC(=O)Nc2ccccc2OC)c(OC)c1 | 22 µM (inactive)
O=C(Nc1cc(S(=O)(=O)N2CCOCC2)ccc1N1CCCCC1)c1cc(-c2ccccn2)nc2ccccc12 | 14.6 µM (inactive)
CC(C)(C)C(=O)Nc1cccc(-c2nnc(-c3cccc(NC(=O)C(C)(C)C)c3)o2)c1 | 10.7 µM (inactive)
COc1cc(-c2cc(NC(C)=O)c3ncc(-c4ccccc4)n3c2)cc(OC)c1OC | > 79 µM (inactive)
COc1ccc(Nc2nnc(-c3ccc(O)cc3)c3ccccc23)cc1C(N)=O | > 79 µM (inactive)
CC(C)(C)C(=O)Nc1ccc(C(=O)N/N=C/c2ccccc2OC(=O)c2ccccc2)cc1 | > 79 µM (inactive)
COc1ccc(CN(C)C(=O)C(Cc2ccccc2)NC(=O)c2ccccc2)cc1F (stereo not drawn) | 10.5 µM (inactive)
CCN(CC)C(=O)c1[nH]cnc1C(=O)NCC(=O)OCc1ccccc1 | 8.7 µM
COc1cc(-c2cc(NC=O)c3ncc(-c4ccccc4)n3c2)cc(OC)c1OC | > 79 µM (inactive)
COC(=O)c1cccc(Nc2nc(-c3cccnc3)nc3ccccc23)c1 | 7.25 µM
COc1ccc(-n2nc(C(=O)NCC(=O)Nc3cc(OC)c(OC)c(OC)c3)c3ccccc3c2=O)cc1Cl | 7.79 µM
CC(C)N1C(=O)S/C(=C/c2ccc3c(c2)n(C)c(=O)n3C)C1=O | 7.32 µM
O=C(N/N=C/c1ccc(-c2cccc([N+](=O)[O-])c2)o1)c1ccc([N+](=O)[O-])cc1 | 11.8 µM (inactive)
COc1ccccc1NC(=O)COc1ccc(C(=O)OCC(=O)NC(C)(C)C)cc1OC | 23.9 µM (inactive)
CCOC(=O)c1ccccc1OCc1cc(/C=N/NC(=O)c2cccnc2)ccc1OC | 6.98 µM
C[C@H](CO)N1C[C@H](C)[C@@H](CN(C)S(=O)(=O)c2ccc(F)cc2)Oc2ccc(NC(=O)Nc3ccc4c(c3)OCO4)cc2C1=O | 48.8 µM (inactive)
c1ccc(N2CCOCC2)c(Nc2nc3ccccc3n3cnnc23)c1 | 33.1 µM (inactive)
